Data from the kinase profiling compilation of Christmann-Franck et al. (2016).

Legend:
Experiment in all cases: radiometric filter-binding kinase assay
[1] = molecular target: HIPK2 (human) (UniProt Q9H2X6)
[2] = molecular target: TBK1 (human) (UniProt Q9UHD2)
[3] = molecular target: IGF1R (human) (UniProt P08069)
[4] = molecular target: PIM3 (human) (UniProt Q86V86)
[5] = test system: LCK (mouse); conditions: accession and sequence are those of the human protein
[6] = molecular target: BRSK2 (human) (UniProt Q8IWQ3)
[7] = molecular target: CaMK1 (human) (UniProt Q14012)
[8] = molecular target: MKNK1 (human) (UniProt Q9BUB5)
[9] = test system: SGK1 (human), O00141 [S422D]
[10] = molecular target: PHKG1 (human) (UniProt Q16816)
[11] = molecular target: MAPK11 (human) (UniProt Q15759)
[12] = molecular target: CHEK1 (human) (UniProt O14757)
[13] = molecular target: DYRK3 (human) (UniProt O43781)
[14] = molecular target: CSNK2A1 (human) (UniProt P68400)
[15] = molecular target: YES1 (human) (UniProt P07947)
[16] = molecular target: MAPK8 (human) (UniProt P45983)
[17] = molecular target: MAPKAPK5 (human) (UniProt Q8IW41)
[18] = molecular target: SRPK1 (human) (UniProt Q96SB4)
[19] = molecular target: FGFR1 (human) (UniProt P11362)
[20] = test system: ROCK2 (rat); conditions: accession and sequence are those of the human protein
[21] = molecular target: STK3 (human) (UniProt Q13188)
[22] = molecular target: DYRK1A (human) (UniProt Q13627)
[23] = molecular target: CAMKK2 (human) (UniProt Q96RR4)
[24] = molecular target: MARK3 (human) (UniProt P27448)
[25] = molecular target: MAPK13 (human) (UniProt O15264)

Sequence of MAPK11 (human) (Q15759 whole entry, looked up): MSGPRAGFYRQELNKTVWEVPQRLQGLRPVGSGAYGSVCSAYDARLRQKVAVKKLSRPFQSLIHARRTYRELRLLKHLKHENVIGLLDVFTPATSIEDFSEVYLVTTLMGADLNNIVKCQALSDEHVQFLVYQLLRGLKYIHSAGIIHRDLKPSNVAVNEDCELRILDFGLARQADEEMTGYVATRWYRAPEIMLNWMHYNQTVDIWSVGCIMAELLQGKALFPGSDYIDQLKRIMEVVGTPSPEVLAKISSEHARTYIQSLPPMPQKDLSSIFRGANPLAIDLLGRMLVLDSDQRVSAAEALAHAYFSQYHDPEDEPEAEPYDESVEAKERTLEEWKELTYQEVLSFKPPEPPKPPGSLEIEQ
Sequence of DYRK3 (human) (O43781 whole entry, looked up): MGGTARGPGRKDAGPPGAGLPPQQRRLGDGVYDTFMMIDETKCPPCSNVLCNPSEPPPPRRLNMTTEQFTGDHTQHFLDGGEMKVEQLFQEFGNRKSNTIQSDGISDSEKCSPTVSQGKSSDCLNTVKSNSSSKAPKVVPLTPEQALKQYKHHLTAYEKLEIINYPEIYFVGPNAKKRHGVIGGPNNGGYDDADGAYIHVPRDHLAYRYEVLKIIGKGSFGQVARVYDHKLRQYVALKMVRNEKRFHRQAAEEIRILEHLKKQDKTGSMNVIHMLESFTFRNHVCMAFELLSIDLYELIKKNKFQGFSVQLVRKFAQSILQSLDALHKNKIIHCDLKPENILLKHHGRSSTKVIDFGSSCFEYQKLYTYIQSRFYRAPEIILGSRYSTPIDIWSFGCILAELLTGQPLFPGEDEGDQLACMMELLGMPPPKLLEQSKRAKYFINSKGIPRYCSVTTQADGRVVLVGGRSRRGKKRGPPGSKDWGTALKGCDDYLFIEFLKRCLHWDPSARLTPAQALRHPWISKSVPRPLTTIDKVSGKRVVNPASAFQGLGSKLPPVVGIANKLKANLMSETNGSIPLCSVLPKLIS
Sequence of CaMK1 (human) (Q14012 whole entry, looked up): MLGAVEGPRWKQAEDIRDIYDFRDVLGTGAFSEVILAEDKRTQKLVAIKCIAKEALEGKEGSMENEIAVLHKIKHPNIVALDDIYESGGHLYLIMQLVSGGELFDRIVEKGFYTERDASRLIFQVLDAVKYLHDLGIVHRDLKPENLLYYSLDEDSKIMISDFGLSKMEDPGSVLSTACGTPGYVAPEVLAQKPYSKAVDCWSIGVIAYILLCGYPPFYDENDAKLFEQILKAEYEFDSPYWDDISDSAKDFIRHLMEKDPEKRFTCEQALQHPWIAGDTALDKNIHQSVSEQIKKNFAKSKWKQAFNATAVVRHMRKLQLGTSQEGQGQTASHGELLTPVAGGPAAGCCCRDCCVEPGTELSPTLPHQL
Sequence of MAPK8 (human) (P45983 whole entry, looked up): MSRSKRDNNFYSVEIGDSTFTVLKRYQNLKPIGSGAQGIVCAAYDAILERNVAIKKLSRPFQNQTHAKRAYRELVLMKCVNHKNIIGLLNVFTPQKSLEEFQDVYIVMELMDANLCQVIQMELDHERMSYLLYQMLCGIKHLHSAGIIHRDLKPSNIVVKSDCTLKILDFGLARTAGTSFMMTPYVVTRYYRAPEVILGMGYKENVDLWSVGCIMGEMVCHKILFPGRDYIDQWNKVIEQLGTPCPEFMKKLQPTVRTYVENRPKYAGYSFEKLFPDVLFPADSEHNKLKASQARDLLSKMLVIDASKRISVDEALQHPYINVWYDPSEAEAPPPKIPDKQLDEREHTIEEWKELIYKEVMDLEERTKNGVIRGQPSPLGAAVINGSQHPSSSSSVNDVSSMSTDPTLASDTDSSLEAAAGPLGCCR
Sequence of HIPK2 (human) (Q9H2X6 whole entry, looked up): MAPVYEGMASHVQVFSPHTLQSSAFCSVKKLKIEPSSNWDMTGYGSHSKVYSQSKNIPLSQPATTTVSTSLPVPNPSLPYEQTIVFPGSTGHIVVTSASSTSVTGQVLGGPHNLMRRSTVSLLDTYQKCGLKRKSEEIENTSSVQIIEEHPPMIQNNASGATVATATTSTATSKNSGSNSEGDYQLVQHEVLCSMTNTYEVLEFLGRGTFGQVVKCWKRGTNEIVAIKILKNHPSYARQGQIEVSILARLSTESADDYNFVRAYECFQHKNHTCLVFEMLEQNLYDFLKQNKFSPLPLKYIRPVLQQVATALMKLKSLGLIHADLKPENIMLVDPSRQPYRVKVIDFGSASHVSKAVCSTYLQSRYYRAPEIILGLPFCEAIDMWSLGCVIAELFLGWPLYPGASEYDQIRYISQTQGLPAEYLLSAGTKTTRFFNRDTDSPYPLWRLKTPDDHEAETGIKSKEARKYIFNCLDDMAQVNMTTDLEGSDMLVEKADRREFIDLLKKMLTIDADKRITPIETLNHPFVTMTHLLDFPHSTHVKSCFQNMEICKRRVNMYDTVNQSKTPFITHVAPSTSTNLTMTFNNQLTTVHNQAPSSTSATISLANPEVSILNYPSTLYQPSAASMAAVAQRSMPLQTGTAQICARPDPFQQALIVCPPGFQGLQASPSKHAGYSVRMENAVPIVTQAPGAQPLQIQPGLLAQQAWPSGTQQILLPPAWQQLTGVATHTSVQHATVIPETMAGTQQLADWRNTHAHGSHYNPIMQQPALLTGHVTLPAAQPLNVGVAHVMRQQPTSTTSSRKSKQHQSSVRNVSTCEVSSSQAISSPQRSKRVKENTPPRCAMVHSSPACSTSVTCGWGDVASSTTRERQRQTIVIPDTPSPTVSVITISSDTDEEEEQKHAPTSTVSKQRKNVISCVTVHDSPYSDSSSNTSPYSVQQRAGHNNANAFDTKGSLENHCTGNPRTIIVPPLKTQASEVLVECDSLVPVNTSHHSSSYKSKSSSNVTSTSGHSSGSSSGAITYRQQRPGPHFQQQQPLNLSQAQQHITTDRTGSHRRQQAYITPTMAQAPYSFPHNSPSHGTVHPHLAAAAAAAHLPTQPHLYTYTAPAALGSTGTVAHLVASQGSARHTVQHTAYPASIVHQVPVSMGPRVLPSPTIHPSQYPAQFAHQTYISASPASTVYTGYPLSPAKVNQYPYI
Sequence of IGF1R (human) (P08069 whole entry, looked up): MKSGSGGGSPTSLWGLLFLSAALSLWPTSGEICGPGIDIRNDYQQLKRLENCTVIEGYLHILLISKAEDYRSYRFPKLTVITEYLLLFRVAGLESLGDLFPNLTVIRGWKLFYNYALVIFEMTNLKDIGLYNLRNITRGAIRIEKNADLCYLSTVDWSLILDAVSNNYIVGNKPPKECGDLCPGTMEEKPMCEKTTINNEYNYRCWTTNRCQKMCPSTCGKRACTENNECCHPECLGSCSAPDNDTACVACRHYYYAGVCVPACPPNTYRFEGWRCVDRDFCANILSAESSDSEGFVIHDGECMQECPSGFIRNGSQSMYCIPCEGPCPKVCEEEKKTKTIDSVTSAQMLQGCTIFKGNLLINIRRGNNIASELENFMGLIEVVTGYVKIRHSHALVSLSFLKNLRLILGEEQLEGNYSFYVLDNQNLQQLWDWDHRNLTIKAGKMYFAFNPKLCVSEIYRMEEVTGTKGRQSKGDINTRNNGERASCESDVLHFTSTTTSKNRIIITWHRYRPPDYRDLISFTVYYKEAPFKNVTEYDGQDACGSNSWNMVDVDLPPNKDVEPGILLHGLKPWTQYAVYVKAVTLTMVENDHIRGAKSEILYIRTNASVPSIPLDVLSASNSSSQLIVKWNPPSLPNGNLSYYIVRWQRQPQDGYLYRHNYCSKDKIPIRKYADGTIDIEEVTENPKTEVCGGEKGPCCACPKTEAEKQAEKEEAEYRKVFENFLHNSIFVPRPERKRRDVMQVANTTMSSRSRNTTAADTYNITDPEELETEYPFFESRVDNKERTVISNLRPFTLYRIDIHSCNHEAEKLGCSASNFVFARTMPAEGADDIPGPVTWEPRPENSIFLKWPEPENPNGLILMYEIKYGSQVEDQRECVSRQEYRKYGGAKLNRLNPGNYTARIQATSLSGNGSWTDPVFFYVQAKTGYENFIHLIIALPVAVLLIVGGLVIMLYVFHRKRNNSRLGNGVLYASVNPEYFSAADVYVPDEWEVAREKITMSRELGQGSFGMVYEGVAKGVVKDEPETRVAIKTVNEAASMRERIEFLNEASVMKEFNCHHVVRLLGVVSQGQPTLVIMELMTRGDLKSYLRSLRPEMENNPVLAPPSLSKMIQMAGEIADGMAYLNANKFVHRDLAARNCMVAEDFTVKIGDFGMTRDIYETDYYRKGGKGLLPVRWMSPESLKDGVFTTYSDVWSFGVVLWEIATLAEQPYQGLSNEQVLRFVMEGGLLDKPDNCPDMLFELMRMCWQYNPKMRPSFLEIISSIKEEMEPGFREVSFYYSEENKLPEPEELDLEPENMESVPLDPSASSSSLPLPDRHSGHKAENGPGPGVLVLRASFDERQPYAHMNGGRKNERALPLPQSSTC
Sequence of CHEK1 (human) (O14757 whole entry, looked up): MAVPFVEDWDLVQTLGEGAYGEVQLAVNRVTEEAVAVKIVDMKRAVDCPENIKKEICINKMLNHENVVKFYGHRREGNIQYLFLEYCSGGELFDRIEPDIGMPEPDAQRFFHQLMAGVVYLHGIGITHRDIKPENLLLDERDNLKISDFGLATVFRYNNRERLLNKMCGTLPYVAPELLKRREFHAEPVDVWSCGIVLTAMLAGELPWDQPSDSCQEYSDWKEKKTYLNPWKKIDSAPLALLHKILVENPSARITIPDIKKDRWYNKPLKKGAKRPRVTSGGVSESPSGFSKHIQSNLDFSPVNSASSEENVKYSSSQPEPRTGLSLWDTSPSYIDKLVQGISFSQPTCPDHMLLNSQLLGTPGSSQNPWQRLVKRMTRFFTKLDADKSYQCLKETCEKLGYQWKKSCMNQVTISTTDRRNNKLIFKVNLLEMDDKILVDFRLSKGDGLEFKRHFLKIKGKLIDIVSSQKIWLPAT

C/C(=C1/C(=O)Nc2ccc(NC(N)=O)cc21)c1ccc[nH]1
residual activity ([1]; compound 0.001 µM): 89%
residual activity ([1]; compound 0.01 µM): 82%
residual activity ([1]; compound 0.1 µM): 51%
residual activity ([2]; compound 0.001 µM): 99%
residual activity ([2]; compound 0.01 µM): 83%
residual activity ([2]; compound 0.1 µM): 43%
residual activity ([3]; compound 0.1 µM): 94%
residual activity ([4]; compound 0.001 µM): 96%
residual activity ([4]; compound 0.01 µM): 73%
residual activity ([4]; compound 0.1 µM): 25%
residual activity ([5]; compound 0.001 µM): 97%
residual activity ([5]; compound 0.01 µM): 95%
residual activity ([5]; compound 0.1 µM): 64%
residual activity ([6]; compound 0.001 µM): 59%
residual activity ([6]; compound 0.01 µM): 21%
residual activity ([6]; compound 0.1 µM): 12%
residual activity ([7]; compound 0.001 µM): 104%
residual activity ([7]; compound 0.01 µM): 116%
residual activity ([7]; compound 0.1 µM): 103%
residual activity ([8]; compound 0.001 µM): 92%
residual activity ([8]; compound 0.01 µM): 87%
residual activity ([8]; compound 0.1 µM): 82%
residual activity ([9]; compound 0.001 µM): 98%
residual activity ([9]; compound 0.01 µM): 86%
residual activity ([9]; compound 0.1 µM): 58%
residual activity ([10]; compound 0.001 µM): 97%
residual activity ([10]; compound 0.01 µM): 66%
residual activity ([10]; compound 0.1 µM): 18%
residual activity ([11]; compound 0.001 µM): 104%
residual activity ([11]; compound 0.01 µM): 100%
residual activity ([11]; compound 0.1 µM): 105%
residual activity ([12]; compound 0.001 µM): 89%
residual activity ([12]; compound 0.1 µM): 21%
residual activity ([13]; compound 0.001 µM): 83%
residual activity ([13]; compound 0.01 µM): 74%
residual activity ([13]; compound 0.1 µM): 33%
residual activity ([14]; compound 0.001 µM): 92%
residual activity ([14]; compound 0.01 µM): 91%
residual activity ([14]; compound 0.1 µM): 86%
residual activity ([15]; compound 0.001 µM): 77%
residual activity ([15]; compound 0.01 µM): 60%
residual activity ([15]; compound 0.1 µM): 42%
residual activity ([16]; compound 0.001 µM): 114%
residual activity ([16]; compound 0.01 µM): 117%
residual activity ([16]; compound 0.1 µM): 106%
residual activity ([17]; compound 0.001 µM): 100%
residual activity ([17]; compound 0.01 µM): 90%
residual activity ([17]; compound 0.1 µM): 94%
residual activity ([18]; compound 0.001 µM): 98%
residual activity ([18]; compound 0.01 µM): 96%
residual activity ([18]; compound 0.1 µM): 93%
residual activity ([19]; compound 0.001 µM): 96%
residual activity ([19]; compound 0.01 µM): 61%
residual activity ([19]; compound 0.1 µM): 18%
residual activity ([20]; compound 0.001 µM): 88%
residual activity ([20]; compound 0.01 µM): 90%
residual activity ([20]; compound 0.1 µM): 84%
residual activity ([21]; compound 0.001 µM): 83%
residual activity ([21]; compound 0.01 µM): 36%
residual activity ([21]; compound 0.1 µM): 10%
residual activity ([22]; compound 0.001 µM): 110%
residual activity ([22]; compound 0.01 µM): 91%
residual activity ([22]; compound 0.1 µM): 67%
residual activity ([23]; compound 0.001 µM): 101%
residual activity ([23]; compound 0.01 µM): 90%
residual activity ([23]; compound 0.1 µM): 60%
residual activity ([24]; compound 0.001 µM): 93%
residual activity ([24]; compound 0.01 µM): 61%
residual activity ([24]; compound 0.1 µM): 14%
residual activity ([25]; compound 0.001 µM): 96%
residual activity ([25]; compound 0.01 µM): 89%
residual activity ([25]; compound 0.1 µM): 86%

NC(=O)Nc1ccc2c(c1)/C(=C/c1cc(-c3cccnc3)c[nH]1)C(=O)N2
residual activity ([1]; compound 0.1 µM): 33%
residual activity ([1]; compound 1.0 µM): 7%
residual activity ([1]; compound 10.0 µM): 1%
residual activity ([2]; compound 0.1 µM): 27%
residual activity ([2]; compound 1.0 µM): 7%
residual activity ([2]; compound 10.0 µM): 11%
residual activity ([3]; compound 1.0 µM): 33%
residual activity ([3]; compound 10.0 µM): 1%
residual activity ([4]; compound 0.1 µM): 30%
residual activity ([4]; compound 1.0 µM): 9%
residual activity ([4]; compound 10.0 µM): 7%
residual activity ([5]; compound 0.1 µM): 44%
residual activity ([5]; compound 1.0 µM): 10%
residual activity ([5]; compound 10.0 µM): 3%
residual activity ([6]; compound 0.1 µM): 13%
residual activity ([6]; compound 1.0 µM): 10%
residual activity ([6]; compound 10.0 µM): 18%
residual activity ([7]; compound 0.1 µM): 112%
residual activity ([7]; compound 1.0 µM): 69%
residual activity ([7]; compound 10.0 µM): 19%
residual activity ([8]; compound 0.1 µM): 80%
residual activity ([8]; compound 1.0 µM): 54%
residual activity ([8]; compound 10.0 µM): 30%
residual activity ([9]; compound 0.1 µM): 77%
residual activity ([9]; compound 1.0 µM): 32%
residual activity ([9]; compound 10.0 µM): 6%
residual activity ([10]; compound 0.1 µM): 13%
residual activity ([10]; compound 1.0 µM): 1%
residual activity ([10]; compound 10.0 µM): 0%
residual activity ([11]; compound 0.1 µM): 103%
residual activity ([11]; compound 1.0 µM): 80%
residual activity ([11]; compound 10.0 µM): 49%
residual activity ([12]; compound 0.1 µM): 85%
residual activity ([12]; compound 1.0 µM): 4%
residual activity ([12]; compound 10.0 µM): 1%
residual activity ([13]; compound 0.1 µM): 19%
residual activity ([13]; compound 1.0 µM): 4%
residual activity ([13]; compound 10.0 µM): 1%
residual activity ([14]; compound 0.1 µM): 93%
residual activity ([14]; compound 1.0 µM): 65%
residual activity ([14]; compound 10.0 µM): 21%
residual activity ([15]; compound 0.1 µM): 32%
residual activity ([15]; compound 1.0 µM): 8%
residual activity ([15]; compound 10.0 µM): 3%
residual activity ([16]; compound 0.1 µM): 124%
residual activity ([16]; compound 1.0 µM): 99%
residual activity ([16]; compound 10.0 µM): 48%
residual activity ([17]; compound 0.1 µM): 95%
residual activity ([17]; compound 1.0 µM): 50%
residual activity ([17]; compound 10.0 µM): 8%
residual activity ([18]; compound 0.1 µM): 90%
residual activity ([18]; compound 1.0 µM): 75%
residual activity ([18]; compound 10.0 µM): 36%
residual activity ([19]; compound 0.1 µM): 17%
residual activity ([19]; compound 1.0 µM): 2%
residual activity ([19]; compound 10.0 µM): 1%
residual activity ([20]; compound 1.0 µM): 37%
residual activity ([20]; compound 10.0 µM): 7%
residual activity ([21]; compound 0.1 µM): 8%
residual activity ([21]; compound 1.0 µM): 2%
residual activity ([21]; compound 10.0 µM): 0%
residual activity ([22]; compound 0.1 µM): 42%
residual activity ([22]; compound 1.0 µM): 11%
residual activity ([23]; compound 0.1 µM): 67%
residual activity ([23]; compound 1.0 µM): 41%
residual activity ([23]; compound 10.0 µM): 35%
residual activity ([24]; compound 0.1 µM): 16%
residual activity ([24]; compound 1.0 µM): 5%
residual activity ([24]; compound 10.0 µM): 3%
residual activity ([25]; compound 0.1 µM): 85%
residual activity ([25]; compound 1.0 µM): 62%
residual activity ([25]; compound 10.0 µM): 22%
